From patent US7439350B2, “Nucleotide analogs” (Gilead Sciences, Inc., priority 1993, dated 2008)
Entries after “also recorded” stand apart in the source; their conditions may differ. Where two headings read alike, the source gives them in different places.

How the values were obtained:
[1] = test system: herpes simplex virus, type-1 and 2 (HSV-1 and -2); conditions: cited from earlier work
[2] = test system: intraperitoneal P388 leukemia; conditions: murine tumor model; cited from earlier work
adenovirus = conditions: cited from earlier work
[3] = test system: broad-spectrum of DNA viruses; conditions: HSV-1 and 2, VZV, TK- HSV, HCMV, SeHV, SHV-1, BHV-1, EHV-1, ASF virus, vaccinia virus, adenoviruses, MSV; cited from earlier work
[4] = test system: varicella zoster virus (VZV); conditions: cited from earlier work
[5] = test system: herpes simplex virus type 1; conditions: mice and rabbits in vivo, including herpetic keratitis caused by a TK- mutant; cited from earlier work
vaccinia virus = conditions: cited from earlier work
[6] = test system: uninfected cells (MA 104 cells); experiment: Toxicity of the compounds to uninfected cells (CC50); assay type: cell-based; conditions: concentration that kills 50% of uninfected cells
Protocol: Compounds were individually tested for activity against HSV-1 and/or HSV-2. HSV-2 (strain 414-92) was tested using MA 104 cells in the following assay protocol. 96-Well plates were seeded with 1×10^4 MA 104 cells per well using 200 μL minimal essential medium (MEM) containing 10% calf serum per well, and incubated overnight at 37° C. The compounds were dissolved in MEM Earle's Salts without serum. The medium was removed by-aspiration and 100 μL MEM Earle's Salts without serum was added to the wells. Serial 3-fold dilutions of the compounds were prepared by serial transfer of 50 μL of medium from wells containing compound to wells lacking compound. The plates were incubated 15 minutes at 37° C. followed by addition of 100 PFU/well of virus in MEM Earle's Salts with 2% fetal bovine serum. The plates were then incubated at 37° C. for three days until approximately 90% of the cells in virus infected control wells containing no compound were killed. Following incubation, medium was aspirated and the wells were washed with sterile PBS. 100 μL 0.5% crystal violet in 20% methanol was then added to the wells for 5 minutes, aspirated and the wells were washed two or three times with distilled water. 200 μL of 0.01 N HCl was added to the wells and the absorbance of each well at 595 nm was determined. […]

HSV-2 (strain 414-92) = experiment: Antiviral activity against HSV-2 (strain 414-92) in MA 104 cells, crystal violet readout; assay type: cell-based; conditions: HSV-2 strain 414-92, MA 104 cells, three days; concentration that inhibits virus-mediated cell killing by 50%
Protocol: Compounds were individually tested for activity against HSV-1 and/or HSV-2. HSV-2 (strain 414-92) was tested using MA 104 cells in the following assay protocol. 96-Well plates were seeded with 1×10^4 MA 104 cells per well using 200 μL minimal essential medium (MEM) containing 10% calf serum per well, and incubated overnight at 37° C. The compounds were dissolved in MEM Earle's Salts without serum. The medium was removed by-aspiration and 100 μL MEM Earle's Salts without serum was added to the wells. Serial 3-fold dilutions of the compounds were prepared by serial transfer of 50 μL of medium from wells containing compound to wells lacking compound. The plates were incubated 15 minutes at 37° C. followed by addition of 100 PFU/well of virus in MEM Earle's Salts with 2% fetal bovine serum. The plates were then incubated at 37° C. for three days until approximately 90% of the cells in virus infected control wells containing no compound were killed. Following incubation, medium was aspirated and the wells were washed with sterile PBS. 100 μL 0.5% crystal violet in 20% methanol was then added to the wells for 5 minutes, aspirated and the wells were washed two or three times with distilled water. 200 μL of 0.01 N HCl was added to the wells and the absorbance of each well at 595 nm was determined. The results, shown in Table 6, were expressed as the IC50, the concentration (μM) that inhibits cell killing mediated by HSV-2 by 50%. […] The toxicity of the compounds were expressed as the CC50, the concentration that kills 50% of uninfected cells.

[7] = test system: human cytomegalovirus (HCMV); conditions: cited from earlier work
HCMV = experiment: Activity against HCMV in tissue culture (NHDF cell line); assay type: cell-based
Source text: The title compound was synthesized using N^4-benzoyl HPMPC diethyl ester tritylated at the hydroxyl group as a starting material. The starting material was detritylated using acetic acid and then converted to N^4-benzoyl HPMPC using TMSBr. The resulting compound was converted to N^4-benzoyl cHPMPC using DCC and morpholine in pyridine.

HSV II = experiment: Inhibition of cytopathic effects by HSV II in MA 104 cells, XTT readout; assay type: cell-based; conditions: CPE determined with XTT
MA 104 cells = experiment: CC50 in the HSV II / MA 104 XTT assay; assay type: cell-based
KOS strain of HSV-1 = experiment: Antiviral activity against KOS strain of HSV-1 in VERO cells; assay type: cell-based; conditions: KOS strain of HSV-1, VERO cells; concentration that inhibits virus-mediated cell killing by 50%
[8] = test system: murine cytomegalovirus (MCMV); conditions: cited from earlier work
[9] = test system: Rauscher murine leukemia virus (R-MuLV); conditions: in vitro; cited from earlier work
[10] = test system: human immunodeficiency virus (HIV); conditions: cited from earlier work
R-MuLV = conditions: treatment of R-MuLV in mice; cited from earlier work
B16 melanoma = conditions: murine tumor model; cited from earlier work
herpes viruses = conditions: in vitro; cited from earlier work
HSV 1 = conditions: in vivo, HSV 1 infection in mice; cited from earlier work
[11] = Oral bioavailability in monkeys
[12] = Incubation in rat intestinal homogenate; assay type: in vitro ADME; conditions: two phosphorus isomers separated by HPLC (one isomer / the other isomer)
Source text: (§1) The cHFMPC pivaloyloxymethyl ester synthesis yields a scalemic mixture at the phosphorus atom. The mixture was separated by HIPLC into the two isomers which were then exposed to an rat intestinal homogenate or to a rat intestinal wash.

[13] = Incubation in rat intestinal wash; assay type: in vitro ADME; conditions: both phosphorus isomers
Source text: as §1

## Nc1nc2c(ncn2C[C@@H](CO)OCP(=O)(O)O)c(=O)[nH]1 [(S)-HFMPG]
[1]
  activity against HSV-1 and -2: active

## Nc1ncnc2c1ncn2C[C@@H](CO)OCP(=O)(O)O [(S)-HPMPA]
[1]
  activity against HSV-1 and -2: active
[2]
  antitumor activity against P388 leukemia: active
adenovirus
  activity against adenovirus: active
[3]
  activity against a broad-spectrum of DNA viruses: potent and selective activity
[4]
  activity against VZV: active
[5]
  efficacy against local and systemic HSV-1 infections: effective
Vaccinia virus
  activity against vaccinia virus: active

## Nc1nc(N)c2ncn(C[C@@H](CO)OCP(=O)(O)O)c2n1 [(S)-HPMPDAP]
[1]
  activity against HSV-1 and -2: active

## Nc1ncnc2c1ncn2C[C@H]1COP(=O)(O)CO1 [(S)-cyclic HPMPA]
[1]
  activity against HSV-1 and -2: active
adenovirus
  activity against adenovirus: active
[4]
  activity against VZV: active
Vaccinia virus
  activity against vaccinia virus: active

## CC(NP(=O)(COCCn1cnc2c(N)ncnc21)NC(C)C(=O)OCc1ccccc1)C(=O)OCc1ccccc1 (stereo not drawn) [Ex 1, bis(alanyl benzyl ester)PMEA]
[6]
  CC50: > 100 µM
HSV-2 (strain 414-92)
  IC50: 20 µM

## Nc1ncnc2c1ncn2CCOCP(=O)(NCC(=O)OCc1ccccc1)NCC(=O)OCc1ccccc1 [Ex 4, bis(glycyl benzyl ester)PMEA]
[6]
  CC50: > 100 µM
HSV-2 (strain 414-92)
  IC50: 60 µM

## Nc1ccn(CC(CO)OCP(=O)(O)O)c(=O)n1 (stereo not drawn) [HPMPC, 1-(2-phosphonomethoxy-3-hydroxypropyl)-cytosine]
[1]
  activity against HSV-1 and -2: active
[7]
  activity against HCMV: active
HCMV; Human betaherpesvirus 5
  IC50: 0.4 µM

## O=C(Nc1ccn(C[C@H]2COP(=O)(O)CO2)c(=O)n1)c1ccccc1 [N^4-benzoyl cHPMPC]
HCMV
  IC50: 22 µM

## Nc1ncnc2c1ncn2CCOCP(=O)(O)O [PMEA, 9-(2-phosphonylmethoxyethyl)adenine]
[1]
  activity against HSV-1 and -2: active
HSV II
  IC50: 19.3 µM
[2]
  antitumor activity against P388 leukemia: active
MA 104 cells; MA 104 cells, XTT assay of Example 4, read-out: CC50
  CC50: 2000 µM
[7]
  activity against HCMV: activity
KOS strain of HSV-1
  EC50: 138 µM
[8]
  antiviral effect in vivo against MCMV: significant antiviral effect
[9]
  activity against R-MuLV: active
[10]
  activity against HIV: active
R-MuLV
  potency in vivo compared with AZT: more potent
HSV-2 (strain 414-92)
  IC50: 21 µM

## Nc1nc(N)c2ncn(CCOCP(=O)(O)O)c2n1 [PMEDAP]
[1]
  activity against HSV-1 and -2: active
[10]
  activity against HIV: active

## Nc1nc2c(ncn2CCOCP(=O)(O)O)c(=O)[nH]1 [PMEG]
[1]
  activity against HSV-1 and -2: active
[2]
  antitumor activity against P388 leukemia: active
B16 melanoma
  antitumor activity against B16 melanoma: active
Herpes viruses
  activity against herpes viruses: active
HSV 1
  potency relative to acyclovir: > 50 fold

## Nc1ncc2ncn(CCOCP(=O)(O)O)c2n1 [PMEMAP]
[10]
  activity against HIV: active

## CC(C)(C)C(=O)OCOP(=O)(COCCn1cnc2c(N)ncnc21)OCOC(=O)C(C)(C)C [bis(POM)PMEA, bis(pivaloyloxymethyl)-9-(2-phosphonylmethoxyethyl)adenine]
HSV II
  IC50: 0.5 µM
MA 104 cells
  CC50: > 10 µM
[11]
  oral bioavailability: about 25%

## CC(C)(C)C(=O)OCOP1(=O)CO[C@@H](Cn2ccc(N)nc2=O)CO1 (stereo partly drawn) [cHFMPC pivaloyloxymethyl ester]
[12]
  metabolic fate after incubation in intestinal homogenate: converted to cHPMPC; also recorded: converted to HPMPC pivaloyloxymethyl monoester
[13]
  metabolic fate after incubation in intestinal wash: converted to HPMPC pivaloyloxymethyl monoester
